# Data published in patent publication US7781419B2, “Use of bisphosphonates for otosclerosis” (priority 2003, dated 2010).
# Where two headings read alike, the source gives them in different places.
# Legend:
# [1] = tested on: otosclerosis patients with dizziness; assay: Example 4: intravenous zolendronic acid, dizziness patients; type: in vivo, human; conditions: 4 mg per injection, after 4 to 12 months, 3 patients
# Experimental: (§1) Patients were administered the bisphosphonate to see if dizziness could disappear or if associated symptoms of hearing loss or ear noise could be improved.
# In a fourth study, the following populations having the symptom stated were administered a zolendronic acid injection in 4 mg per injection no more frequently than every three months. […] Some patients were also administered etidronate.
# Dizziness after 4 to 12 Months
# [2] = tested on: otosclerosis patients with hearing loss; conditions: 4 mg per injection, after 2 to 10 months, 5 patients (two also on etidronate)
# Experimental: To illustrate the advantages of the invention, patients with the following symptoms were treated.
# In a fourth study, the following populations having the symptom stated were administered a zolendronic acid injection in 4 mg per injection no more frequently than every three months. The frequency of administration was dependent upon the patient response and the impending indication. Some patients were also administered etidronate. All patients received calcium plus vitamin D and/or calcium plus fluoride throughout the treatment.
# Hearing Loss after 2 to 10 Months
# [3] = tested on: otosclerosis patients with dizziness; assay: Example 2: stepped-up risedronate follow-up, dizziness patients; type: in vivo, human; conditions: 30 mg twice weekly, after 2 to 32 months, 155 patients
# Description: (§2) The second investigation is cumulative to the first investigation, i.e., some patients reported in Example 1 are included in Example 2.
# Dizziness after a Period of 2 to 32 Months
# [4] = tested on: otosclerosis patients with hearing loss; assay: Example 2: stepped-up risedronate follow-up, hearing loss patients; type: in vivo, human; conditions: 30 mg twice weekly, after 3 to 31 months, 125 patients
# Description: as §2
# Hearing Loss after a Period of 3 to 31 Months
# [5] = tested on: otosclerosis patients with hearing loss; assay: Example 1: stepped-up risedronate, hearing loss patients; type: in vivo, human; conditions: 30 mg twice weekly, after 3 to 24 months, 46 patients
# Experimental: (§3) In the first study, the following populations having the symptom stated were treated with a dosing schedule of 30 mg risedronate twice weekly (double the recommended dose for treating osteoporosis).
# Hearing Loss after a Period of 3 to 24 Months
# [6] = tested on: otosclerosis patients with tinnitus; assay: Example 2: stepped-up risedronate follow-up, tinnitus patients; type: in vivo, human; conditions: 30 mg twice weekly, after 2 to 31 months, 84 patients
# Description: as §2
# Tinnitus or Ear Noise after 2 to 31 Months
# [7] = tested on: otosclerosis patients with dizziness; assay: Example 1: stepped-up risedronate, dizziness patients; type: in vivo, human; conditions: 30 mg twice weekly, after 3 to 25 months, 76 patients
# Experimental: as §1, §3
# [8] = tested on: otosclerosis patients with tinnitus; assay: Example 1: stepped-up risedronate, tinnitus patients; type: in vivo, human; conditions: 30 mg twice weekly, after 3 to 19 months, 29 patients
# Experimental: This symptom can be a mild distraction, to an annoyance, to difficulty concentrating, to a total distraction. […] There are no current recognized treatments for tinnitus directed at a cause.
# as §3
# Tinnitus or Ear Noise after a Period of 3 to 19 Months
# [9] = tested on: otosclerosis patients with Meniere's syndrome; assay: Example 2: stepped-up risedronate follow-up, Meniere's syndrome patients; type: in vivo, human; conditions: 30 mg twice weekly, after 2 to 33 months, 42 patients
# Description: as §2
# Meniere's Syndrome after a Period of 2 to 33 Months
# [10] = tested on: otosclerosis patients with Meniere's syndrome; assay: Example 1: stepped-up risedronate, Meniere's syndrome patients; type: in vivo, human; conditions: 30 mg twice weekly, after 2 to 25 months, 36 patients
# Experimental: as §3
compound,measurement,setting,value
O=P(O)(O)C(O)(Cn1ccnc1)P(=O)(O)O [zolendronic acid],relief of dizziness,[1],~100%
same,patients with hearing unchanged,[2],80%
same,patients with hearing worse,[2],20%
"O=P(O)(O)C(O)(Cc1cccnc1)P(=O)(O)O [risedronate, pyridiniyl bisphosphonate]",patients whose dizziness disappeared,[3],45%
same,patients with dizziness worse,[3],2%
same,patients with no change in dizziness,[3],5%
same,"patients with reduced dizziness, no problem in daily living",[3],39%
same,relief of dizziness,[3],84%
same,patients with hearing improved,[4],51%
same,patients with hearing unchanged,[4],47%
same,patients with hearing worse,[4],2%
same,patients with hearing improved,[5],70%
same,patients with hearing unchanged,[5],24%
same,patients with hearing worse,[5],6%
same,improvement in tinnitus or ear noise,[6],76%
same,patients with disappearance of tinnitus,[6],5%
same,patients with reduction of tinnitus to a point where it was no longer a problem,[6],71%
same,patients with tinnitus the same,[6],21%
same,patients with tinnitus worse,[6],2%
same,patients with disappearance of dizziness,[7],38%
same,patients with dizziness worse,[7],3%
same,patients with no change in dizziness,[7],8%
same,"patients with reduced dizziness, no problem in daily living",[7],38%
same,relief of dizziness,[7],greater than 90%
same,improvement in tinnitus or ear noise,[8],68%
same,patients with disappearance of tinnitus,[8],7%
same,patients with reduction of tinnitus to a point where it was no longer a problem,[8],62%
same,patients with tinnitus the same,[8],24%
same,patients with tinnitus worse,[8],7%
same,clogging or fullness in the ear worse,[9],no patients
same,dizziness the same or worse,[9],no instances
same,patients whose clogging or fullness in the ear disappeared,[9],26%
same,patients whose dizziness disappeared,[9],57%
same,patients with clogging or fullness in the ear better,[9],19%
same,patients with clogging or fullness in the ear the same,[9],7%
same,patients with ear noise better,[9],60%
same,patients with ear noise gone,[9],10%
same,patients with ear noise the same,[9],19%
same,patients with ear noise worse,[9],2%
same,patients with hearing better,[9],69%
same,patients with hearing the same,[9],14%
same,patients with hearing worse than with prior bisphosphonate treatment,[9],12%
same,"patients with improvement, regular lifestyle free of disabling dizziness",[9],17%
same,clogging or fullness in the ear worse,[10],no patient
same,dizziness the same or worse,[10],no instances
same,ear noise worse,[10],no patient
same,patients in whom clogging or fullness in the ear was not present,[10],42%
same,patients whose clogging or fullness in the ear disappeared,[10],17%
same,patients whose dizziness disappeared,[10],50%
same,patients whose ear noise cleared up,[10],8%
same,patients with clogging or fullness in the ear better,[10],22%
same,patients with clogging or fullness in the ear the same,[10],19%
same,patients with ear noise better,[10],72%
same,patients with ear noise unchanged,[10],19%
same,patients with hearing better,[10],83%
same,patients with hearing the same,[10],8%
same,patients with hearing worse than with prior bisphosphonate treatment,[10],8%
same,"patients with improvement, regular lifestyle free of disabling dizziness",[10],16%
